Measured values from publication PMC3254824 (Biochemistry, 2011).

Tests used:
[1] = target: T1, yThg1 (yeast Thg1, tRNA^His guanylyltransferase) (Saccharomyces cerevisiae, UniProt P53215); assay: single-turnover adenylylation kinetics, […]'-32P tRNA; format: biochemical; details: read-out: KDapp,NTP, adenylylation step, 15 μM enzyme, 10 mM MgCl2, pH 6.0, room temperature
T1 sequence (P53215 1-237): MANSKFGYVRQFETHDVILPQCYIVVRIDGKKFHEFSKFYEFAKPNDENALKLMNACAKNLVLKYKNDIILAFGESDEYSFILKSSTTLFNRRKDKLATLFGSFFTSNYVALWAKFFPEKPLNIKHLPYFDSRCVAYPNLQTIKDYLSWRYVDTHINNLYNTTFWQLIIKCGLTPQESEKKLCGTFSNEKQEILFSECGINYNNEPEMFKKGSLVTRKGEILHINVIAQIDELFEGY

[2] = target: T1, yThg1 (yeast Thg1, tRNA^His guanylyltransferase); assay: single-turnover nucleotidyl transfer kinetics, gamma-32P ppp-tRNA; format: biochemical; details: read-out: KDapp,NTP, nucleotidyl transfer step, 15 μM enzyme, 10 mM MgCl2, pH 7.5, room temperature

SMILES	Kd [1] [µM]	Kd [2] [µM]
Nc1ncnc2c1ncn2[C@@H]1O[C@H](COP(=O)(O)OP(=O)(O)OP(=O)(O)O)[C@@H](O)[C@H]1O [ATP]	360 ± 80	
Nc1nc2c(ncn2[C@@H]2O[C@H](COP(=O)(O)OP(=O)(O)OP(=O)(O)O)[C@@H](O)[C@H]2O)c(=O)[nH]1 [GTP]		21 ± 4
